Results taken from US9770026B2, “Substituted pyrimidine compound and uses thereof” (Shenyang Sinochem Agrochemicals R&D Co., Ltd., priority 2012, dated 2017).

The compounds below were run on Green peach aphids (Myzus Persicae Sulzer) (assay: bioactivity test against green peach aphid, airbrush foliar spray). Conditions: 10 ppm, death rate after 48 hrs.
Assay type: in vivo
Procedure: (§1) Compounds were dissolved in mixed solvent (acetone:methanol=1:1), and diluted to required concentration with water containing 0.1% of tween 80.
(§2) Diamond back moth, armyworm, peach aphid and carmine spider mite were used as targets and the method of spraying by airbrush was used for determination of insecticidal biassays.
Method: Filter papers were put in culture dishes (Diameter=6 cm), and water was dripped on filter papers for preserving moisture. Green peach aphids (Myzus Persicae Sulzer) were maintained on cabbage. Leaves (Diameter=3 cm) of approximately 15-30 aphids were put in the culture dishes. Bioactivity tests were used the method of Airbrush Foliar Spray, pressure=10 psi (0.7 kg/cm2), spray volume=0.5 mL. The studies were conducted at […] 25±1 C in incubator cabinets with 60±5% RH. Survey the survival aphids after 48 hrs and calculate the death rates.
`CCOC(=O)c1ccc(Oc2ccc(CCNc3ncnc(CC)c3Cl)cc2)nc1` [Compound I-267] was tested, and the “control (test results against green peach aphid)” value was 100%.
With `CCc1ncnc(NCCc2ccc(Oc3ncccc3C(F)(F)F)cc2)c1Cl` [Compound I-987] the “control (test results against green peach aphid)” value was 100%.

Same assay, conditions: 100 ppm, death rate after 48 hrs
For `CCOC(=O)c1ccc(Oc2ccc(CCNc3ncnc(CC)c3Cl)cc2)nc1` [Compound I-267], the “control (test results against green peach aphid)” value was 100%.
For `CCc1ncnc(NCCc2ccc(Oc3ncc(C(F)(F)F)cc3Cl)cc2)c1Cl` [Compound I-602], the “control (test results against green peach aphid)” value was 100%.
In the case of `CCc1ncnc(NCCc2ccc(Oc3ncccc3C(F)(F)F)cc2)c1Cl` [Compound I-987], the “control (test results against green peach aphid)” value is reported as 100%.

Same assay, conditions: 600 ppm, death rate after 48 hrs
With `CCOC(=O)c1ccc(Oc2ccc(CCNc3ncnc(CC)c3Cl)cc2)nc1` [Compound I-267] the “control (test results against green peach aphid)” value was 100%.
For `CCc1ncnc(NCCc2ccc(Oc3ncc(C(F)(F)F)cc3Cl)cc2)c1Cl` [Compound I-602], the “control (test results against green peach aphid)” value was 100%.
With `CCc1ncnc(NCCc2ccc(Oc3ncccc3C(F)(F)F)cc2)c1Cl` [Compound I-987] the “control (test results against green peach aphid)” value was 100%.

What follows are compounds tested on carmine spider mite (assay: bioactivity test against carmine spider mite, airbrush spray). Conditions: 10 mg/L; contrastive test.
Assay type: in vivo
Procedure: as §1, §2
The method: Broadbean shoots with two true leaves in pot were taken, the healthy adults of carmine spider mite were inoculated to the leaves. The adults were counted and then sprayed with airbrush at the pressure of 0.7 kg/cm^2 and at dose of 0.5 ml. 3 replicates were set for each treatment. And then they were maintained in standard observation room. Scores were conducted and mortalities were calculated after 72 hrs.
For `CCc1ncnc(NCCc2ccc(Oc3ncccc3C(F)(F)F)cc2)c1Cl` [Compound I-987], the “Insecticidal activity against carmine spider mite (% )” value (shortened to “Insecticidal activity … (% )”) was 80%.

Same assay, conditions: 100 mg/L; contrastive test
In the case of `CCc1ncnc(NCCc2ccc(Oc3ncccc3C(F)(F)F)cc2)c1Cl` [Compound I-987], the “Insecticidal activity … (% )” value is reported as 100%.

Same assay, conditions: 600 mg/L; contrastive test
For `CCc1ncnc(NCCc2ccc(Oc3ncccc3C(F)(F)F)cc2)c1Cl` [Compound I-987], the “Insecticidal activity … (% )” value was 100%.

Same assay, conditions: 100 ppm, mortality after 72 hrs
With `CCc1ncnc(NCCc2ccc(Oc3ncccc3C(F)(F)F)cc2)c1Cl` [Compound I-987] the “control against carmine spider mite” value was 100%.

Same assay, conditions: 600 ppm, mortality after 72 hrs
In the case of `CCOC(=O)c1ccc(Oc2ccc(CCNc3ncnc(CC)c3Cl)cc2)nc1` [Compound I-267], the “control against carmine spider mite” value is reported as 100%.
With `CCc1ncnc(NCCc2ccc(Oc3ncc(C(F)(F)F)cc3Cl)cc2)c1Cl` [Compound I-602] the “control against carmine spider mite” value was 100%.
In the case of `CCc1ncnc(NCCc2ccc(Oc3ncccc3C(F)(F)F)cc2)c1Cl` [Compound I-987], the “control against carmine spider mite” value is reported as 100%.

The compounds below were run on corn rust (assay: protectant activity in vivo against corn rust). Conditions: 100 ppm.
For `CCc1ncnc(NCCc2ccc(Oc3ncccc3C(F)(F)F)cc2)c1Cl` [Compound I-987], the “protectant activity against corn rust in vivo” value was 100%.

Same assay, conditions: 400 ppm
With `CCOC(=O)c1ccc(Oc2ccc(CCNc3ncnc(CC)c3Cl)cc2)nc1` [Compound I-267] the “protectant activity against corn rust in vivo” value was 100%.
With `CCc1ncnc(NCCc2ccc(Oc3ncccc3C(F)(F)F)cc2)c1Cl` [Compound I-987] the “protectant activity against corn rust in vivo” value was 100%.

The compounds below were run on wheat powdery mildew (assay: protectant activity in vivo against wheat powdery mildew). Conditions: 100 ppm.
With `CCOC(=O)c1ccc(Oc2ccc(CCNc3ncnc(CC)c3Cl)cc2)nc1` [Compound I-267] the “protectant activity against wheat powdery mildew in vivo” value was 100%.
In the case of `CCc1ncnc(NCCc2ccc(Oc3ncc(C(F)(F)F)cc3Cl)cc2)c1Cl` [Compound I-602], the “protectant activity against wheat powdery mildew in vivo” value is reported as 100%.
In the case of `CCc1ncnc(NCCc2ccc(Oc3ncccc3C(F)(F)F)cc2)c1Cl` [Compound I-987], the “protectant activity against wheat powdery mildew in vivo” value is reported as 100%.

Same assay, conditions: 400 ppm
In the case of `CCOC(=O)c1ccc(Oc2ccc(CCNc3ncnc(CC)c3Cl)cc2)nc1` [Compound I-267], the “protectant activity against wheat powdery mildew in vivo” value is reported as 100%.
With `CCc1ncnc(NCCc2ccc(Oc3ncc(C(F)(F)F)cc3Cl)cc2)c1Cl` [Compound I-602] the “protectant activity against wheat powdery mildew in vivo” value was 100%.
`CCc1ncnc(NCCc2ccc(Oc3ncccc3C(F)(F)F)cc2)c1Cl` [Compound I-987] was tested, and the “protectant activity against wheat powdery mildew in vivo” value was 100%.

These compounds were tested on cucumber downy mildew (assay: protectant activity in vivo against cucumber downy mildew). Conditions: 100 ppm.
With `CCc1ncnc(NCCc2ccc(Oc3ncc(C(F)(F)F)cc3Cl)cc2)c1Cl` [Compound I-602] the “protectant activity against cucumber downy mildew in vivo” value was 100%.
In the case of `CCc1ncnc(NCCc2ccc(Oc3ncccc3C(F)(F)F)cc2)c1Cl` [Compound I-987], the “protectant activity against cucumber downy mildew in vivo” value is reported as 100%.

Same assay, conditions: 400 ppm
In the case of `CCc1ncnc(NCCc2ccc(Oc3ncc(C(F)(F)F)cc3Cl)cc2)c1Cl` [Compound I-602], the “protectant activity against cucumber downy mildew in vivo” value is reported as 100%.
`CCc1ncnc(NCCc2ccc(Oc3ncccc3C(F)(F)F)cc2)c1Cl` [Compound I-987] was tested, and the “protectant activity against cucumber downy mildew in vivo” value was 100%.
